For one series, the target named is MMP-13 catalytic domain (Homo sapiens, UniProt P45452). Description: Thiopeptolide substrate hydrolysis inhibition assay, MMP-13 catalytic domain. The series is classed as biochemical. The following applies: MMP-13 catalytic domain; read-out: MMP-13CD IC50. The text has this: The methods described below for the inhibition of MMP-13 may also be adapted and used to determine the ability of the compounds of Formula I to inhibit other matrix metalloproteases such as MMP-1, MMP-2, MMP-3, MMP-7, MMP-8, MMP-9, MMP-12, MMP-14, MMP-17, and the like.
Thiopeptolide substrates show virtually no decomposition or hydrolysis at or below neutral pH in the absence of a matrix metalloproteinase enzyme. A typical thiopeptolide substrate commonly utilized for assays is Ac-Pro-Leu-Gly-thioester-Leu-Leu-Gly-OEt. A 100 μL assay mixture will contain 50 mM of N-2-hydroxyethylpiperazine-N′-2-ethanesulfonic acid buffer (“HEPES,” pH 7.0), 10 mM CaCl2, 100 μM thiopeptolide substrate, and 1 mM 5,5′-dithio-bis-(2-nitro-benzoic acid) (DTNB). […] Assays are carried out with and without matrix metalloproteinase inhibitor compounds, and the amount of hydrolysis is compared for a determination of inhibitory activity of the test compounds.

The target in the next series is T1, MMP-3 catalytic domain (Homo sapiens, UniProt P08254).
T1 construct: MMP-1 full-length, MMP-3 catalytic domain, MMP-7 full-length
Description: Thiopeptolide substrate hydrolysis inhibition assay, MMP-3 catalytic domain. It is filed as biochemical. The conditions noted are these: MES buffer pH 6.0, read-out: MMP-3CD IC50. From the text:
(§1) The assay methods of Biological Examples 1-4 measure the amount by which a test compound reduces the hydrolysis of a thiopeptolide substrate catalyzed by a matrix metalloproteinase enzyme or catalytic domain thereof. It has been shown previously by Ye Qi-Zhuang, Hupe D., and Johnson L. (Current Medicinal Chemistry, 1996;3:407-418) that inhibitor activity against a catalytic domain of an MMP is predictive of the inhibitor activity against the respective full-length MMP enzyme. The methods described below for the inhibition of MMP-13 may also be adapted and used to determine the ability of the compounds of Formula I to inhibit other matrix metalloproteases such as MMP-1, MMP-2, MMP-3, MMP-7, MMP-8, MMP-9, MMP-12, MMP-14, MMP-17, and the like.
(§2) Thiopeptolide substrates show virtually no decomposition or hydrolysis at or below neutral pH in the absence of a matrix metalloproteinase enzyme. A typical thiopeptolide substrate commonly utilized for assays is Ac-Pro-Leu-Gly-thioester-Leu-Leu-Gly-OEt. A 100 μL assay mixture will contain 50 mM of N-2-hydroxyethylpiperazine-N′-2-ethanesulfonic acid buffer (“HEPES,” pH 7.0), 10 mM CaCl2, 100 μM thiopeptolide substrate, and 1 mM 5,5′-dithio-bis-(2-nitro-benzoic acid) (DTNB). […] The change in absorbance at 405 nm is monitored on a Thermo Max microplate reader (molecular Devices, Menlo Park, Calif.) at room temperature (22° C.). The calculation of the amount of hydrolysis of the thiopeptolide substrate is based on E412=13600 M^−1 cm^−1 for the DTNB-derived product 3-carboxy-4-nitrothiophenoxide. Assays are carried out with and without matrix metalloproteinase inhibitor compounds, and the amount of hydrolysis is compared for a determination of inhibitory activity of the test compounds.
(§3) Test compounds were evaluated at various concentrations in order to determine their respective IC50 values, the micromolar concentration of compound required to cause a 50% inhibition of catalytic activity of the respective enzyme.
It should be appreciated that the assay buffer used with MMP-3CD was 50 mM N-morpholinoethane sulfonate (“MES”) at pH 6.0 rather than the HEPES buffer at pH 7.0 described above.
(§4) Some representative compounds of Formula I have been evaluated for their ability to inhibit MMP-13, MMP-1FL, MMP-3CD, MMP-7FL, MMP-8FL, MMP-9FL, MMP-12CD, MMP-14CD, and/or MMP-17CD, wherein FL means full-length enzyme and CD means a catalytic domain of the full-length enzyme. Test compounds can be evaluated at various concentrations in order to determine their respective IC50 values, the micromolar concentration of compound required to cause a 50% inhibition of the hydrolytic activity of the respective enzyme.
(§5) Certain compounds of Formula I have also been assayed with MMP-1 full-length, MMP-3 catalytic domain, MMP-7 full-length, MMP-8 full-length, MMP-9 full-length, MMP-12 catalytic domain, MMP-14 catalytic domain, and MMP-17 catalytic domain. […] In Biological Table 2, the compound example numbers for the Compound Examples are indicated in the column labelled “Ex. No.”

In another series the target is T2, MMP-14 catalytic domain (Homo sapiens, UniProt P50281).
T2 construct: MMP-14 catalytic domain, and MMP-17 catalytic domain
Description: Thiopeptolide substrate hydrolysis inhibition assay, MMP-14 catalytic domain. It is filed as biochemical. The conditions noted are these: read-out: MMP-14CD IC50.
Text: as §1, §2, §3, §4, §5

Series [1] in a line: Pharmacokinetics in Sprague-Dawley rats (single IV or oral dose). The series is classed as in vivo, rat. The text has this:
For comparison purposes, a reference compound was separately characterized according to its pharmacokinetics properties except AUC in a similar manner. The reference compound (“Reference Compound 1”) was the compound of Example 188 of PCT International Patent Application Publication number WO 02/064572 A1, which is also described in PCT International Patent Application Publication number WO 02/064080 A2 in Table IVb on page 76, 5th species from the top. […] Reference Compound 1 is named 4-[6-(4-methoxy-benzylcarbamoyl)- 1 -methyl-2,4-dioxo- 1,4-dihydro-2H-pyrido[3,4-d]pyrimidin-3-ylmethyl]-benzoic acid, and has the structure drawn below: [drawing 98]

The next series has as its target T3, MMP-17 catalytic domain (Homo sapiens, UniProt Q9ULZ9).
T3 construct: MMP-14 catalytic domain, and MMP-17 catalytic domain
T3 sequence (Q9ULZ9 126-295 limits assumed): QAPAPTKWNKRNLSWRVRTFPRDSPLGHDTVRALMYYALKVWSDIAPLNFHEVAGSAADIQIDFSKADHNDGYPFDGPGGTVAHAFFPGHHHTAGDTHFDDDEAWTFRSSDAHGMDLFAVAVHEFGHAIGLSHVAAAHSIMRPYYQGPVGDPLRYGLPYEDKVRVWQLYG
Description: Thiopeptolide substrate hydrolysis inhibition assay, MMP-17 catalytic domain. The series is classed as biochemical. The conditions noted are these: read-out: MMP-17 CD IC50.
Text: as §1, §2, §3, §4, §5

As usually defined, the IC50 is the concentration that inhibits the measured activity by half.

Each structure is given as a SMILES string.

T1 sequence (P08254 100-272 limits assumed): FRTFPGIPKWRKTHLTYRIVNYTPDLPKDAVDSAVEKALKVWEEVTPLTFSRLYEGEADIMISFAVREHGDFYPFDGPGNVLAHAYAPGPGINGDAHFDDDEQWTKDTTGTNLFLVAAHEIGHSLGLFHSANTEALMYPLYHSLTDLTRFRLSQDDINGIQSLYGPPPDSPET

Turning to `COc1ccc(CNC(=O)c2cc3c(=O)n(Cc4ccc(C(=O)O)cc4)cnc3cn2)cc1` [Compound Example 1, 4-[6-(4-methoxy-benzylcarbamoyl)-4-oxo-4H-pyrido[3,4-d]pyrimidin-3-ylmethyl]-benzoic acid], the IC50 on MMP-13 catalytic domain was 0.0077 µM; at MMP-3 catalytic domain it was 26 µM; at MMP-14 catalytic domain, more than 100 µM; on MMP-17 catalytic domain, more than 100 µM. For the same molecule, the clearance in series [1] (rat, blood, Sprague-Dawley rats, single 5 mg/kg intravenous dose, read-out: IV CL) came out at 7.1 mL/min/kg. Besides, the half-life in series [1] (rat, blood, Sprague-Dawley rats, single 5 mg/kg intravenous dose, read-out: IV T1/2 (converted)) was 2.1 h. Moreover, the “PO AUC (ng/hr/mL)” value in series [1] (rats, single 5 mg/kg oral dose) is recorded as 3,750 ng/hr/mL.
